How the values were obtained:
Test in all cases: Kinase selectivity panel
Assay type in all cases: biochemical
Details in all cases: read-out: Inhibition(%) @ 1 µM RK-019
DNA-PK(h) = target: T1, DNA-PK(h) (Homo sapiens, UniProt P78527)
T1 construct: purchased Eurofins Discovery Services (KinaseProfiler)
How it was run: (§1)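 Selectivity profiling used one concentration (1 µM) in an ATP-site competition binding assay over 422 recombinant human kinases; data given as inhibition ratio.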

PDHK2(h) = target: T2, PDHK2(h) (Homo sapiens, UniProt Q15119)
T2 construct: purchased Eurofins Discovery Services (KinaseProfiler)
How it was run: as §1

TSSK3(h) = target: T3, TSSK3(h) (Homo sapiens, UniProt Q96PN8)
T3 construct: purchased Eurofins Discovery Services (KinaseProfiler)
T3 sequence (Q96PN8 whole entry): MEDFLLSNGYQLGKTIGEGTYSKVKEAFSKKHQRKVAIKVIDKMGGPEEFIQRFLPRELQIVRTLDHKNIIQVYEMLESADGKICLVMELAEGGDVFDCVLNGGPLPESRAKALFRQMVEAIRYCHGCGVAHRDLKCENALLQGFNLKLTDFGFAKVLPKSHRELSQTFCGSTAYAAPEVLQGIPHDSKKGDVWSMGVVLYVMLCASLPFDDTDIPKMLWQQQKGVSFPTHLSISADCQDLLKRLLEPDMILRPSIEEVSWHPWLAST
How it was run: as §1

Blk(h) = target: T4, Blk(h) (Homo sapiens, UniProt P51451)
T4 construct: purchased Eurofins Discovery Services (KinaseProfiler)
How it was run: as §1

MOK(h) = target: T5, MOK(h) (Homo sapiens, UniProt Q9UQ07)
T5 construct: purchased Eurofins Discovery Services (KinaseProfiler)
T5 sequence (Q9UQ07 whole entry): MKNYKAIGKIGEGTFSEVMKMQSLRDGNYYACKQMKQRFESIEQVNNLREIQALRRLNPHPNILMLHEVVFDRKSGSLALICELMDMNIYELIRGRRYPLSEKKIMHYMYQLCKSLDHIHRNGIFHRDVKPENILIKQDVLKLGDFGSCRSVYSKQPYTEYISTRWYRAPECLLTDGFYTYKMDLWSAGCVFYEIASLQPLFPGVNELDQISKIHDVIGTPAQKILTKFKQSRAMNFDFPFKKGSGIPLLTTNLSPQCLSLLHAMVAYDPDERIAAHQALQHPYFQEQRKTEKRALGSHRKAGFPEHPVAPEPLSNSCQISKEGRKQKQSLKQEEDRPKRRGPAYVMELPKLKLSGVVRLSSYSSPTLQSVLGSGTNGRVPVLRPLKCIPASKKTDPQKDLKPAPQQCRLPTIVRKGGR
How it was run: as §1

ErbB4(h) = target: T6, ErbB4(h) (Homo sapiens, UniProt Q15303)
T6 construct: purchased Eurofins Discovery Services (KinaseProfiler)
How it was run: as §1

EGFR(L858R)(h) = target: T7, EGFR(L858R)(h) (Homo sapiens, UniProt P00533, L858R)
T7 construct: purchased Eurofins Discovery Services (KinaseProfiler)
How it was run: as §1

MARK4(h) = target: T8, MARK4(h) (Homo sapiens, UniProt Q96L34)
T8 construct: purchased Eurofins Discovery Services (KinaseProfiler)
How it was run: as §1

Met(M1268T)(h) = target: T9, Met(M1268T)(h) (Homo sapiens, UniProt P08581, M1250T)
T9 construct: purchased Eurofins Discovery Services (KinaseProfiler)
How it was run: as §1

MEK1(h) = target: T10, MEK1(h) (Homo sapiens, UniProt Q02750)
T10 construct: purchased Eurofins Discovery Services (KinaseProfiler)
How it was run: as §1

WNK3(h) = target: T11, WNK3(h) (Homo sapiens, UniProt Q9BYP7)
T11 construct: purchased Eurofins Discovery Services (KinaseProfiler)
How it was run: as §1

EphA7(h) = target: T12, EphA7(h) (Homo sapiens, UniProt Q15375)
T12 construct: purchased Eurofins Discovery Services (KinaseProfiler)
How it was run: as §1

Haspin(h) = target: T13, Haspin(h) (Homo sapiens, UniProt Q8TF76)
T13 construct: purchased Eurofins Discovery Services (KinaseProfiler)
How it was run: as §1

Fyn(h) = target: T14, Fyn(h) (Homo sapiens, UniProt P06241)
T14 construct: purchased Eurofins Discovery Services (KinaseProfiler)
How it was run: as §1

PKBβ(h) = target: T15, PKBβ(h) (Homo sapiens, UniProt P31751)
T15 construct: purchased Eurofins Discovery Services (KinaseProfiler)
T15 sequence (P31751 whole entry): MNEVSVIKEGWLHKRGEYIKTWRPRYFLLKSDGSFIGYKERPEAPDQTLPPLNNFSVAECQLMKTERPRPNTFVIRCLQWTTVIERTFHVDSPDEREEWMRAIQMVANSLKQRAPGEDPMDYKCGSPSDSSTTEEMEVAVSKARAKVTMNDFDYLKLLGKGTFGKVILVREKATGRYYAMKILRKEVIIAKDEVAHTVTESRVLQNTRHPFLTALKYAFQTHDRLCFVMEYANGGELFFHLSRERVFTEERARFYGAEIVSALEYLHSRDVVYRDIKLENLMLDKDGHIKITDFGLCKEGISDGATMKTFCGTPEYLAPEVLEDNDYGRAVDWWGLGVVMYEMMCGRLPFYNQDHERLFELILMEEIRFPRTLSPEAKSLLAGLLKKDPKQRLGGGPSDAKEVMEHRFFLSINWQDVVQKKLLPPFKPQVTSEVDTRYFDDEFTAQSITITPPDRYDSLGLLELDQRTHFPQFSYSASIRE
How it was run: as §1

Lyn(m) = target: T16, Lyn(m) (Mus musculus, UniProt P25911)
T16 construct: purchased Eurofins Discovery Services (KinaseProfiler)
T16 sequence (P25911 2-512 limits assumed): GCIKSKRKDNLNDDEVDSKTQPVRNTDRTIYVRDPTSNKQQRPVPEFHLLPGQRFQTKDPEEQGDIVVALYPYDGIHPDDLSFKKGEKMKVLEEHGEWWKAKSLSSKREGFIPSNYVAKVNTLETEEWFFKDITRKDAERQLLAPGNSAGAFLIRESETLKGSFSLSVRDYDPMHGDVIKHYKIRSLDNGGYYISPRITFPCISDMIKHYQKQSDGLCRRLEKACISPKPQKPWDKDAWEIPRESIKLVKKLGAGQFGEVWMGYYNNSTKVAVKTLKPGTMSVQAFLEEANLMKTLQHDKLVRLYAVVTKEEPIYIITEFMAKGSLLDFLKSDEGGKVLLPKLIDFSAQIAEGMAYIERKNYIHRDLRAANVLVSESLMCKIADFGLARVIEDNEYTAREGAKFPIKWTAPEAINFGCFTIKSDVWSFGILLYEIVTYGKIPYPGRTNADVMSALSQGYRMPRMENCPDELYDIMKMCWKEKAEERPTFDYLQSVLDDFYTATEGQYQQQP

PKR(h) = target: T17, PKR(h) (Homo sapiens, UniProt P19525)
T17 construct: purchased Eurofins Discovery Services (KinaseProfiler)
T17 sequence (P19525 whole entry): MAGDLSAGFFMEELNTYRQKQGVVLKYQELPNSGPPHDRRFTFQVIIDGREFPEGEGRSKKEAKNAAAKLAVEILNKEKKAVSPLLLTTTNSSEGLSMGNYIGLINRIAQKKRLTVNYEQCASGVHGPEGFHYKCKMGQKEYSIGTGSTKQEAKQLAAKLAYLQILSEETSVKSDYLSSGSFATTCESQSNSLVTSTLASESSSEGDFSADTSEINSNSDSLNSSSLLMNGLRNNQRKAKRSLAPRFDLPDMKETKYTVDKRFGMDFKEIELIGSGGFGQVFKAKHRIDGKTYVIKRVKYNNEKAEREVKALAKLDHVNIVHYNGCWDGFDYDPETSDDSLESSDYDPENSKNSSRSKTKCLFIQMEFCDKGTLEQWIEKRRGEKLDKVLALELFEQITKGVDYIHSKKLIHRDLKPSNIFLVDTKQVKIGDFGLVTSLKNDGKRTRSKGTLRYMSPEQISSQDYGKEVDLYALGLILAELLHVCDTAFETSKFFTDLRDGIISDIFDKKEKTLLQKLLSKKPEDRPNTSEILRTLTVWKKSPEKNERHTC
How it was run: as §1

PRK2(h) = target: T18, PRK2(h) (Homo sapiens, UniProt Q16513)
T18 construct: purchased Eurofins Discovery Services (KinaseProfiler)
How it was run: as §1

mTOR(h) = target: T19, mTOR(h) (Homo sapiens, UniProt P42345)
T19 construct: purchased Eurofins Discovery Services (KinaseProfiler)
How it was run: as §1

HIPK2(h) = target: T20, HIPK2(h) (Homo sapiens, UniProt Q9H2X6)
T20 construct: purchased Eurofins Discovery Services (KinaseProfiler)
How it was run: as §1

Pim-3(h) = target: T21, Pim-3(h) (Homo sapiens, UniProt Q86V86)
T21 construct: purchased Eurofins Discovery Services (KinaseProfiler)
How it was run: as §1

VRK1(h) = target: T22, VRK1(h) (Homo sapiens, UniProt Q99986)
T22 construct: purchased Eurofins Discovery Services (KinaseProfiler)
How it was run: as §1

Lck(h) = target: T23, Lck(h) (Homo sapiens, UniProt P06239)
T23 construct: purchased Eurofins Discovery Services (KinaseProfiler)
How it was run: as §1

IR(h), activated = target: T24, IR(h), activated (Homo sapiens, UniProt P06213)
T24 construct: purchased Eurofins Discovery Services (KinaseProfiler)
How it was run: as §1

TSSK4(h) = target: T25, TSSK4(h) (Homo sapiens, UniProt Q6SA08)
T25 construct: purchased Eurofins Discovery Services (KinaseProfiler)
How it was run: as §1

[1] = target: T26, PI3 Kinase (p110d/p85a)(h) (Homo sapiens, UniProt O00329)
T26 construct: purchased Eurofins Discovery Services (KinaseProfiler)
T26 sequence (O00329 whole entry): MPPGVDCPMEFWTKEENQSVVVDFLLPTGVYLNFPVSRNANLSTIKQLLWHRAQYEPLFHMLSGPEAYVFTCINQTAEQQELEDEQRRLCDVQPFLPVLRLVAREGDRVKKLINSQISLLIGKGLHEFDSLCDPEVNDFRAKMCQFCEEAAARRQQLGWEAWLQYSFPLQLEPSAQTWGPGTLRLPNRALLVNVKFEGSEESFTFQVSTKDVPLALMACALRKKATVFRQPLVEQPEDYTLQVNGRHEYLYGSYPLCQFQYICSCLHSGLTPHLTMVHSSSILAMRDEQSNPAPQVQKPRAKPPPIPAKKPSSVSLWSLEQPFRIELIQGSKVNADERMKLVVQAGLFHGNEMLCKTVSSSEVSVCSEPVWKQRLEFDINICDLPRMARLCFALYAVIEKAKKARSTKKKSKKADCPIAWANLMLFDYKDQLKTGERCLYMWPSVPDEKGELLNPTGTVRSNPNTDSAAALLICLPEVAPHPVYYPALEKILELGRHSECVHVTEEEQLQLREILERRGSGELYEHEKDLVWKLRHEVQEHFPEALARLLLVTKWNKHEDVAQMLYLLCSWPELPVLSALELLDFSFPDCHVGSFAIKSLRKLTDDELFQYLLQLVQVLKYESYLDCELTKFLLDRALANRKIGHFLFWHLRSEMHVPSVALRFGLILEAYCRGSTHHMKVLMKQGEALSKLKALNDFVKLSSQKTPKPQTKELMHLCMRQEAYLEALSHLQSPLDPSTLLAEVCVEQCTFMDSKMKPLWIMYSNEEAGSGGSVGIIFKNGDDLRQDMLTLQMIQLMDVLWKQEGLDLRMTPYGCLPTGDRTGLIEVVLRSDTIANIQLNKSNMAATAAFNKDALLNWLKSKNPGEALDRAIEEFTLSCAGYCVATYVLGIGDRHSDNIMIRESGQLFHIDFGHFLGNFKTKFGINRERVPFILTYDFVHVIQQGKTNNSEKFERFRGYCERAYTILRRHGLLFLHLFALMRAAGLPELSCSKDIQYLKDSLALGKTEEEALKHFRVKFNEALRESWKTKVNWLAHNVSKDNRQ
T26 sequence (P27986 whole entry partner): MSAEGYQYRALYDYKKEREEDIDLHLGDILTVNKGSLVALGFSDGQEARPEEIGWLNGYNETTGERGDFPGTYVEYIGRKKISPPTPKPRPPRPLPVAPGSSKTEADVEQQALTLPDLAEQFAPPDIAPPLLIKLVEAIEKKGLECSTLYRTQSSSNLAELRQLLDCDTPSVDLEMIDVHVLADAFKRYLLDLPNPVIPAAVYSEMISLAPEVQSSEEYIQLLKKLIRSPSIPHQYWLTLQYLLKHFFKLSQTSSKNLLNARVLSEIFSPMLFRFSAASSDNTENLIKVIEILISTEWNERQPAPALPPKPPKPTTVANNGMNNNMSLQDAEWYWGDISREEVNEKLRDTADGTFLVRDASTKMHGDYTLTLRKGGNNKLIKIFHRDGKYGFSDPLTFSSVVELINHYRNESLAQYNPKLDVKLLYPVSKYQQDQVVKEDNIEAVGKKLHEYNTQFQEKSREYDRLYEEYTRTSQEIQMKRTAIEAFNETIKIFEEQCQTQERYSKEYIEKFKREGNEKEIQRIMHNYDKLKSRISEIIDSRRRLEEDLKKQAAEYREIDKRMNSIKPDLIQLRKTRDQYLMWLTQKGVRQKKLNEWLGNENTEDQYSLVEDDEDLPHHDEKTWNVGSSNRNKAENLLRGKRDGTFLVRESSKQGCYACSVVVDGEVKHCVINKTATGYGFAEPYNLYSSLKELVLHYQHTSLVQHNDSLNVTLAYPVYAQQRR
How it was run: as §1

TTBK2(h) = target: T27, TTBK2(h) (Homo sapiens, UniProt Q6IQ55)
T27 construct: purchased Eurofins Discovery Services (KinaseProfiler)
How it was run: as §1

HRI(h) = target: T28, HRI(h) (Homo sapiens, UniProt Q9BQI3)
T28 construct: purchased Eurofins Discovery Services (KinaseProfiler)
How it was run: as §1

WNK2(h) = target: T29, WNK2(h) (Homo sapiens, UniProt Q9Y3S1)
T29 construct: purchased Eurofins Discovery Services (KinaseProfiler)
How it was run: as §1

PI3 Kinase (p120g)(h) = target: T30, PI3 Kinase (p120g)(h) (Homo sapiens, UniProt P48736)
T30 construct: purchased Eurofins Discovery Services (KinaseProfiler)
How it was run: as §1

CaMKIδ(h) = target: T31, CaMKIδ(h) (Homo sapiens, UniProt Q8IU85)
T31 construct: purchased Eurofins Discovery Services (KinaseProfiler)
How it was run: as §1

TGFBR1(h) = target: T32, TGFBR1(h) (Homo sapiens, UniProt P36897)
T32 construct: purchased Eurofins Discovery Services (KinaseProfiler)
T32 sequence (P36897 34-503): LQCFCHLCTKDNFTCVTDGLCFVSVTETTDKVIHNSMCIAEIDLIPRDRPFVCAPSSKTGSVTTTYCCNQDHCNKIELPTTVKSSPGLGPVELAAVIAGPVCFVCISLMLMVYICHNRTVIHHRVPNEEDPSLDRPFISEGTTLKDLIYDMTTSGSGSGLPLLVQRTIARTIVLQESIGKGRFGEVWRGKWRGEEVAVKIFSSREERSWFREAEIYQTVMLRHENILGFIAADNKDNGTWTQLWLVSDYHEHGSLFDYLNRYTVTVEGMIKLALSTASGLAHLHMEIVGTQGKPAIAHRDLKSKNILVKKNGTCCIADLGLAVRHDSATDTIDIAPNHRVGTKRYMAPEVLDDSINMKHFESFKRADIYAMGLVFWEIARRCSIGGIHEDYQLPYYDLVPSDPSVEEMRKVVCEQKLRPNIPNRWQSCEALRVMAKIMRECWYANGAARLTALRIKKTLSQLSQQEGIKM
How it was run: as §1

SRMS(h) = target: T33, SRMS(h) (Homo sapiens, UniProt Q9H3Y6)
T33 construct: purchased Eurofins Discovery Services (KinaseProfiler)
How it was run: as §1

SIK2(h) = target: T34, SIK2(h) (Homo sapiens, UniProt Q9H0K1)
T34 construct: purchased Eurofins Discovery Services (KinaseProfiler)
How it was run: as §1

TrkC(h) = target: T35, TrkC(h) (Homo sapiens, UniProt Q16288)
T35 construct: purchased Eurofins Discovery Services (KinaseProfiler)
How it was run: as §1

ALK1(h) = target: T36, ALK1(h) (Homo sapiens, UniProt P37023)
T36 construct: purchased Eurofins Discovery Services (KinaseProfiler)
T36 sequence (P37023 22-503): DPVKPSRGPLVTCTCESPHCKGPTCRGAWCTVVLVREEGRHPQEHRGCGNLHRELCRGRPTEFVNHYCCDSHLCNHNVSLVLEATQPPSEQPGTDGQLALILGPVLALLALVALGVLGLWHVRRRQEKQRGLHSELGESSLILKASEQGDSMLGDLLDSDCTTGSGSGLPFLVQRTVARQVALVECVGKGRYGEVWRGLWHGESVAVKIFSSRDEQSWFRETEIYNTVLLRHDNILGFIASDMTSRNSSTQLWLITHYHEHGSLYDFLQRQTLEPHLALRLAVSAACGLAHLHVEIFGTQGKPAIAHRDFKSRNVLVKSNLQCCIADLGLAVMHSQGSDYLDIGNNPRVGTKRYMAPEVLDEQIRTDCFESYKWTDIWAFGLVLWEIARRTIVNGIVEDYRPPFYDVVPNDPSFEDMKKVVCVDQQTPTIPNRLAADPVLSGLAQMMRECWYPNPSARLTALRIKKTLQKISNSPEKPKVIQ
How it was run: as §1

TGFBR2(h) = target: T37, TGFBR2(h) (Homo sapiens, UniProt P37173)
T37 construct: purchased Eurofins Discovery Services (KinaseProfiler)
How it was run: as §1

COc1cc(OC)cc(N(CCN[C@H](C)CO)c2ccc3ncc(-c4cnn(C)c4)c(=O)n3c2)c1 [RK-019, (R)-7-((3,5-dimethoxyphenyl) (2-((1-hydroxypropan-2-yl)amino)ethyl)amino)-3-(1-methyl-1H-pyrazol-4-yl)-4H-pyrido [1,2-a]pyrimidin-4-one]
activity at 1 µM (DNA-PK(h)): 101%
activity at 1 µM (PDHK2(h)): 104%
activity at 1 µM (TSSK3(h)): 102%
activity at 1 µM (Blk(h)): 70%
activity at 1 µM (MOK(h)): 97%
activity at 1 µM (ErbB4(h)): 105%
activity at 1 µM (EGFR(L858R)(h)): 114%
activity at 1 µM (MARK4(h)): 106%
activity at 1 µM (Met(M1268T)(h)): 71%
activity at 1 µM (MEK1(h)): 79%
activity at 1 µM (WNK3(h)): 110%
activity at 1 µM (EphA7(h)): 108%
activity at 1 µM (Haspin(h)): 105%
activity at 1 µM (Fyn(h)): 62%
activity at 1 µM (PKBβ(h)): 84%
activity at 1 µM (Lyn(m)): 23%
activity at 1 µM (PKR(h)): 50%
activity at 1 µM (PRK2(h)): 106%
activity at 1 µM (mTOR(h)): 105%
activity at 1 µM (HIPK2(h)): 83%
activity at 1 µM (Pim-3(h)): 114%
activity at 1 µM (VRK1(h)): 98%
activity at 1 µM (Lck(h)): 30%
activity at 1 µM (IR(h), activated): 95%
activity at 1 µM (TSSK4(h)): 106%
activity at 1 µM [1]: 93%
activity at 1 µM (TTBK2(h)): 82%
activity at 1 µM (HRI(h)): 100%
activity at 1 µM (WNK2(h)): 103%
activity at 1 µM (PI3 Kinase (p120g)(h)): 102%
activity at 1 µM (CaMKIδ(h)): 98%
activity at 1 µM (TGFBR1(h)): 83%
activity at 1 µM (SRMS(h)): 123%
activity at 1 µM (SIK2(h)): 99%
activity at 1 µM (TrkC(h)): 86%
activity at 1 µM (ALK1(h)): 98%
activity at 1 µM (TGFBR2(h)): 85%

Source: paper PMC9532703, “A novel small molecule RK-019 inhibits FGFR2-amplification gastric cancer cell proliferation and induces apoptosis in vitro and in vivo” (Frontiers in Pharmacology, 2022)
